According to ChEMBL document CHEMBL5050852, “Kif18a inhibitors” (2021):
pIC50: −log10 of the molar value.

Biological target: T1, Kinesin-like protein KIF18A (Homo sapiens, UniProt Q8NI77)
T1 sequence (Q8NI77 whole entry): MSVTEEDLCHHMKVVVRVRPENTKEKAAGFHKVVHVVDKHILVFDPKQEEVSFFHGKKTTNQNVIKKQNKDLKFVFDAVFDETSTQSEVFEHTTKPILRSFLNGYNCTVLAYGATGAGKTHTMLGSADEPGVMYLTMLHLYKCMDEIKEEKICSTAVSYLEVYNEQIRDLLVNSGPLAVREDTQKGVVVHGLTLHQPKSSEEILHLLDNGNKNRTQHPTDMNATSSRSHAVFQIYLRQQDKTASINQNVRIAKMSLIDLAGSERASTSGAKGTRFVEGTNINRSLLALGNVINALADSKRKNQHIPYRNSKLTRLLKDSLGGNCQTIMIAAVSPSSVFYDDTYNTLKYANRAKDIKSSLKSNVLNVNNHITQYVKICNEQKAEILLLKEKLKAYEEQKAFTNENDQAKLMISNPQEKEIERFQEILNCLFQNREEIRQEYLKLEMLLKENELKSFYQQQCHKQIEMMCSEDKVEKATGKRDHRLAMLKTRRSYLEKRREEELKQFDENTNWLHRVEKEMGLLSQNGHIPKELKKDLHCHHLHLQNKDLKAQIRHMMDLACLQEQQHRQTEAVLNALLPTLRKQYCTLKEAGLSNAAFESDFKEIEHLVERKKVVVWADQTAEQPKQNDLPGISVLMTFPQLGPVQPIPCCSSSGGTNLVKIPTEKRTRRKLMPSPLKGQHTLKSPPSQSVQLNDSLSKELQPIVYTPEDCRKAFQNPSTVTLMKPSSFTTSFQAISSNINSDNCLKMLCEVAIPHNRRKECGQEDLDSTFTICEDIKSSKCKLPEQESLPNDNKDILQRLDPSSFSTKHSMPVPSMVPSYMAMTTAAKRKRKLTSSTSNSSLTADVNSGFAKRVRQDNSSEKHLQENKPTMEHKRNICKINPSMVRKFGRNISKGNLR
Test: Inhibition of recombinant His-tagged human KIF18A (1 to 467 residues) expressed in baculovirus expression system assessed as inhibition of microtubule-stimulated ATPase activity preincubated for 15 mins followed by ATP addition and further incubated for 15 mins and measured after 40 mins by ADP-Glo reagent based assay

| Compound | pIC50 |
| --- | --- |
| CC(C)(CO)Nc1cccc(NC(=O)c2ccc(S(=O)(=O)NC3(C)COC3)cc2N2CCC3(CC2)CC3)c1 | 6.70 |
| CCS(=O)(=O)Cc1ccc(C(=O)Nc2cccc(S(=O)(=O)NC(C)(C)C)c2)c(N2CCC3(CC2)CC3)c1 | 7.12 |
| CC(C)(C)NS(=O)(=O)c1cccc(NC(=O)c2ccc(CS(=O)(=O)C(C)(C)C)cc2N2CCC3(CC2)CC3)c1 | 7.12 |
| C[C@@H]1CN(c2cc(F)cc(NC(=O)c3ccc(NS(=O)(=O)CCO)cc3N3CCC4(CC3)CC4)c2)CCO1 | 6.88 |
| CC(C)(C)NS(=O)(=O)c1cccc(NC(=O)c2ccc(NS(=O)(=O)CCO)cc2N2CCC3(CC2)CC3)c1 | 7.29 |
